Experimental data published in US7183061B2, “Method of expressing Heliothis ecdysone receptor fusion protein” (Syngenta Limited, priority 1996, dated 2007).

Tests used:
[1] = test system: glucocorticoid receptor; assay: Maize protoplast GUS reporter assay with pMF6HR1PAT (GR) and p221.9GRE6; format: cell-based, Human; conditions: maize protoplasts, reporter plus effector, concentration not given
Description: The glucocorticoid receptor DNA for the Maize transient expression construct was produced via the polymerase chain reaction (PCR) of Human Fibrosarcoma cDNA (HT1080 cell line, ATCC#CC1121) library (Clontech see Hollenberg et al., 1985). The PCR approach taken was to amplify the 2.7 kb fragment encoding the glucocorticoid receptor in two segments. The first segment entails the N-terminal end up to and including the DNA binding domain while the second fragment begins with the hinge region (amino acid 500) thought to the end of the reading frame. Thus, the PCR primer for the N-terminal end segment was designed to contain an EcoRI site and the Kozak consensus sequence for translation initiation: GREcoRI 5′ […] 3′ (SEQ ID NO: 32).
The 2.7 kb EcoRI fragment was subcloned into the vector pMF6PAT EcoRI resulting in pMF6HGIPAT (FIG. 10).
Two reporter plasmids were made by inserting the into p221.9 or p221.10 BamHI/HindIII vectors two pairs or oligonucleotides containing six copies of the glucocorticoid response element (GRE). […]
Protoplasts were isolated from a maize suspension culture derived from BE70×A188 embryogenic callus material, which was maintained by subculturing twice weekly in MS0.5mod. […] The pellet was resuspended in wash buffer and the protoplasts were counted. […] Protein concentrations of tissue homogenates were determined by the Bio-Rad protein assay (Bradford, 1976). […]

[2] = test system: glucocorticoid receptor transactivating and DNA binding domains fused to the ecdysone receptor hinge and ligand binding domains; conditions: mammalian cells; cited from earlier work

CC(C)CC[C@@H](O)[C@](C)(O)[C@H]1CC[C@@]2(O)C3=CC(=O)[C@]4(O)C[C@@H](O)[C@@H](O)C[C@]4(C)[C@H]3[C@H](O)C[C@]12C [Muristerone A]
induced levels of expression [1]: does not lead to induced levels of expression
activity of chimeric receptor as homodimer [2]: active
